Assays:
BRD4(BD1) = BRD4(BD1) (Homo sapiens (Human), UniProt O60885); experiment: BRD4(BD1) biochemical binding assay (HTRF); conditions: biotinylated H4 derived acetylated peptide
Description: 1. BRD4(BD1) Binding Assays
The BRD4(BD1) biochemical binding assay was performed by Sundia MediTech Co. Ltd. in 384-well white plate (OptiPlate-384, PerkinElmer) using HTRF technology.
Briefly, 20 nL of compounds were transferred to the 384-well plate by Echo® 550 liquid handler (Labcyte, USA), then 5 μL of BRD4(BD1) (Reaction Biology Company, RD-11-157) solution or the assay buffer was added to each well. After incubating at RT for 15 min, 5 μL of the biotinylated H4 derived acetylated peptide (synthesized by GL Biochem (Shanghai) Ltd) and 10 μL of the detection solution (Cisbio Assay) were added to each well. After incubating for 1 h at RT, the HTRF signal was measure at 615 nm and 665 nm using the EnVision Multilabel Plate Reader (PerkinElmer, USA). Results were analyzed with a two-wavelength signal ratio: intensity (665 nm)/intensity (615 nm). The inhibition percentage in the presence of the compound was calculated according to the equation, Percent inhibition=(Max−Signal)/(Max−Min)*100%. Fit the data in GraphPad Prism V5.0 software (San Diego, Calif.) to obtain IC50 values with nonlinear regression analysis using equation, Y=Bottom+(Top−Bottom)/(1+10^((Log IC50−X)×HillSlope), where Y stands for inhibition percentage and X stands for compound concentration.

MV-4-11 cells = experiment: MV-4-11 cell proliferation assay (MTS); type: cell-based; conditions: Homo sapiens, MV4-11, 72 h, 3 days culture
Description: 2. Cell Proliferation Assay
MV-4-11 cell proliferation analysis was conducted by the MIS (3-(4,5-dimethylthiazol-2-yl)-5-(3-carboxymethoxyphenyl)-2-(4-sulfophenyl)-2H-tetrazolium, inner salt) assay. Briefly, MV-4-11 cells will be cultured in IMDM (Iscove's Modified Dubecco's Medium) medium supplemented with 10% (v/v) FBS (fetal bovine serum), under the temperature of 37° C., […] and 95% humidity. The cells will be harvested respectively during the logarithmic growth period and counted with hemocytometer. The cell viability is over […] by trypan blue exclusion. Adjust MV-4-11 cells concentrations to 1.2×10^5 cells/mL with complete medium. Add 100 μL cell suspensions to 96-well plates (triplicates for each cell concentration), the final cell densities are 1.2×10^4 cells/well. The next day, dissolve the test compound with DMSO as stock solution. Dispense 5 μL of the stock solution in 1 mL culture media and add 25 μL drug media into 96-well plates. After serially diluting with culture media, the final concentration of the compound will be 0, 0.03, 0.1, 0.3, 1, 3, 10, 30, 100 nM. The plates will be cultured for 3 days, then measured by means of MTS assay. Add PMS (phenazinium methosulfate) solution to MITS solution (1:20) immediately before addition to the culture plate containing cells. Pipet 20 μL of the combined MTS/PMS Solution into each well of the 96 well assay plate containing 100 μL of cells in culture medium. Incubate the plate for 1-4 hours at 37° C. in a humidified, 5% CO2 atmosphere. Record the absorbance at 490 nm using a microplate spectrophotometer (Envision®, PeikinElmer). Fit the data using GraphPad 5.0 and obtain IC50 values.

Structure (SMILES) | IC50 (BRD4(BD1)) [nM] | IC50 (MV-4-11 cells) [nM]
CNC(=O)c1nn(C)c2c3ncc(-c4c(C)nnn4C)cc3n(C(c3ccccc3)C3CCOCC3)c12 (stereo not shown) [Compound 17, 6-(1,4-dimethyl-1H-1,2,3-triazol-5-yl)-N,1-dimethyl-4-(phenyl(tetrahydro-2H-pyran-4-yl)methyl)-1,4-dihydropyrazolo[3′,4′:4,5]pyrrolo[3,2-b]pyridine-3-carboxamide] | 0.55 | 12.7
Cc1nnn(C)c1-c1cnc2c3c(c(C(N)=O)nn3C)n(C(c3ccccc3)C3CCOCC3)c2c1 (stereo not shown) [Compound 16, 6-(1,4-Dimethyl-1H-1,2,3-triazol-5-yl)-1-methyl-4-(phenyl(tetrahydro-2H-pyran-4-yl)methyl)-1,4-dihydropyrazolo[3′,4′:4,5]pyrrolo[3,2-b]pyridine-3-carboxamide] | 0.3 | 3.6
Cc1ccccc1C(C1CCOCC1)n1c2cc(-c3c(C)noc3C)cnc2c2c1c(C(C)(C)O)nn2C (stereo not shown) [Compound 9, 2-(6-(3,5-dimethylisoxazol-4-yl)-1-methyl-4-((tetrahydro-2H-pyran-4-yl)(o-tolyl)methyl)-1,4-dihydropyrazolo[3′,4′:4,5]pyrrolo[3,2-b]pyridin-3-yl)propan-2-ol] | 0.99 | 5.01
Cc1noc(C)c1-c1cnc2c3c(c(C(C)(C)O)nn3C)n([C@H](c3ncccc3F)C3CCOCC3)c2c1 [Compound 2, (S)-2-(6-(3,5-dimethylisoxazol-4-yl)-4-((3-fluoropyridin-2-yl)(tetrahydro-2H-pyran-4-yl)methyl)-1-methyl-1,4-dihydropyrazolo[3′,4′:4,5]pyrrolo[3,2-b]pyridin-3-yl)propan-2-ol] | 0.35 | 0.72
Cc1nnn(C)c1-c1cnc2c3c(c(C(C)(C)N)nn3C)n(C(c3ccccc3)C3CCOCC3)c2c1 (stereo not shown) [Compound 18, 2-(6-(1,4-Dimethyl-1H-1,2,3-triazol-5-yl)-1-methyl-4-(phenyl(tetrahydro-2H-pyran-4-yl)methyl)-1,4-dihydropyrazolo[3′,4′:4,5]pyrrolo[3,2-b]pyridin-3-yl)propan-2-amine] | 1.1 | 3.93
Cc1nnn(C)c1-c1cnc2c3c(c(C(=O)N(C)C)nn3C)n(C(c3ccccc3)C3CCOCC3)c2c1 (stereo not shown) [Compound 15, 6-(1,4-Dimethyl-1H-1,2,3-triazol-5-yl)-N,N,1-trimethyl-4-(phenyl(tetrahydro-2H-pyran-4-yl)methyl)-1,4-dihydropyrazolo[3′,4′:4,5]pyrrolo[3,2-b]pyridine-3-carboxamide] | 0.61 | 25.1

Results, then the molecule that gave them:

IC50 (BRD4(BD1)) [nM] | IC50 (MV-4-11 cells) [nM] | Structure (SMILES)
0.49 | 1.1 | Cc1nnn(C)c1-c1cnc2c3c(c(C(C)(C)O)nn3C)n([C@H](c3ccccc3)C3CCOCC3)c2c1 [Compound 6, (S)-2-(6-(1,4-dimethyl-1H-1,2,3-triazol-5-yl)-1-methyl-4-(phenyl(tetrahydro-2H-pyran-4-yl)methyl)-1,4-dihydropyrazolo[3′,4′:4,5]pyrrolo[3,2-b]pyridin-3-yl)propan-2-ol]
0.57 | 3.13 | Cc1nnn(C)c1-c1cnc2c3c(c(C(C)(C)O)nn3C)n(C(CCC(F)(F)F)c3ncccc3F)c2c1 (stereo not shown) [Compound 4, 2-(6-(1,4-Dimethyl-1H-1,2,3-triazol-5-yl)-1-methyl-4-(4,4,4-trifluoro-1-(3-fluoropyridin-2-yl)butyl)-1,4-dihydropyrazolo[3′,4′:4,5]pyrrolo[3,2-b]pyridin-3-yl)propan-2-ol]
2.2 | 34 | Cc1nnn(C)c1-c1cnc2c3c(c(C(C)(C)O)nn3C)n(C(CCC(F)(F)F)c3cocn3)c2c1 (stereo not shown) [Compound 10, 2-(6-(1,4-dimethyl-1H-1,2,3-triazol-5-yl)-1-methyl-4-(4,4,4-trifluoro-1-(oxazol-4-yl)butyl)-1,4-dihydropyrazolo[3′,4′:4,5]pyrrolo[3,2-b]pyridin-3-yl)propan-2-ol]
0.68 | 0.91 | COc1cccnc1C(C1CCOCC1)n1c2cc(-c3c(C)nnn3C)cnc2c2c1c(C(C)(C)O)nn2C (stereo not shown) [Compound 26, 2-(6-(1,4-Dimethyl-1H-1,2,3-triazol-5-yl)-4-((3-methoxypyridin-2-yl)(tetrahydro-2H-pyran-4-yl)methyl)-1-methyl-1,4-dihydropyrazolo[3′,4′:4,5]pyrrolo[3,2-b]pyridin-3-yl)propan-2-ol]
1.6 | 10.5 | Cc1nc(C(C2CCOCC2)n2c3cc(-c4c(C)nnn4C)cnc3c3c2c(C(C)(C)O)nn3C)co1 (stereo not shown) [Compound 12, 2-(6-(1,4-Dimethyl-1H-1,2,3-triazol-5-yl)-1-methyl-4-((2-methyloxazol-4-yl)(tetrahydro-2H-pyran-4-yl)methyl)-1,4-dihydropyrazolo[3′,4′:4,5]pyrrolo[3,2-b]pyridin-3-yl)propan-2-ol]
